{
  "source": "patent US20250215026A1",
  "about": "“Deuterated Compounds, Compositions and Uses” (BioJive LLC, priority 2018, published 2025)",
  "key": {"[1]": {"experiment": "Liposome leakage of sulforhodamine B by fluorescence correlation spectroscopy, +/- Fe2+/ascorbate", "procedure": "The equipment set up and peak intensity analysis was conducted as described in Perevoshchikova, et al., Biochim. Biophys. Acta 1778, 2182-2190 (2008). Briefly, fluorescence excitation and detection utilized a Nd: YAG solid state laser with a 532-nm beam attached to an Olympus IMT-2 epifluorescent inverted microscope equipped with a 40×, NA 1.2 water immersion objective (Carl Zeiss, Jena, Germany). The fluorescence light passed through an appropriate dichroic beam splitter and a long-pass filter and was imaged onto a 50-μm core fiber coupled to an avalanche photodiode (SPCM-AQR-13-FC, PerkinElmer Optoelectronics, Vaudreuil, Quebec, Canada). The signal from an output was sent to a PC using a fast interface card (Flex02-01D/C, Correlator.com, Bridgewater, NJ). The data acquisition time was 30 s. The fluorescence was recorded from the confocal volume located at about 50 μm above the coverslip surface with 50 μL of the buffer solution added. Most of the data were collected under the conditions of stirring a suspension by a paddle-shaped 3-mm plastic bar rotated at 600 rpm. To calibrate the setup, the fluorescence autocorrelation function of Rhodamine 6G solution was recorded. Assuming the diffusion coefficient of the dye to be 2.5×10^−6 cm^2/s, the value of the confocal radius is circa ω=0.42 μm. The correlated fluorescence emission signals were fitted to the three-dimensional autocorrelation function as described in Hess, et al., Biochemistry 41; 697-705 (2002).\nSRB-loaded liposomes were suspended in an aqueous solution of Fe^2+ and ascorbate […], prepared from lipid mixtures containing linoleoyl stearoyl phosphatidylcholine (H-Lin-PC) as the bulk lipid (unless otherwise stated) with various contents of a series of 1-stearoyl phosphatidylcholines, including compounds of Formula (II). To measure G(τ→0) more precisely, the FCS experiments were performed under stirring conditions. […] The reduction of the G(τ→0) amplitude apparently reflected an increase in the number of fluorescent particles due to SRB release from liposomes. […]"}, "[2]": {"experiment": "Incorporation of orally dosed D-DHA into retina by nanoSIMS", "type": "in vivo, mouse", "details": "after three days of dosing", "procedure": "In this example, D-DHA (20 mg; 1 mg/ul) was administered orally as ethyl ester to a wild-type mouse by gavage for three consecutive days in addition to unrestricted regular DHA-free rodent diet. Mouse retina was harvested and then fixed and embedded in resin. Retinal sections were analyzed with nanoscale secondary ion mass spectrometry (nanoSIMS) to determine the incorporation rates of D-DHA into retinal cells by measuring the relative enrichment of DHA-bound deuterium over its natural tissue abundance. The D-DHA/DHA substitution rate of natural DHA in the outer segments was calculated by the ratio of increased deuterium abundance vs. total hydrogen contribution of DHA in outer segments."}},
  "data": [
    {"smiles": "[2H]C([2H])(/C=C\\CCCCC)/C=C\\CCCCCCCC(=O)O[C@H](COC(=O)CCCCCCCCCCCCCCCCC)COP(=O)([O-])OCC[N+](C)(C)C", "note": "[D2-Lin-PC, 1-stearoyl-2-(11,11-D2-linoleyl)-sn-glycero-3-phosphatidylcholine]", "values": [
      {"measurement": "relative strength of protection of H-Lin-PC bulk: % in bilayer", "setting": "FIG. 6", "result": 25, "unit": "%"},
      {"measurement": "% of deuterated lipid giving very low level of ΔA234 and very low difference in α +/- Fe2+/ascorbate", "setting": "t=10 min, in H-Lin-PC, FIG. 3", "result": "≥ 20", "unit": "%"},
      {"measurement": "effect of incubation with Fe/ascorbate on G(τ→0) amplitude of SRB", "setting": "[1]; 10% D2-Lin-PC in H-Lin-PC, 0, 10, 20 min, FIG. 1A", "result": "led to a decrease in the G(τ→0) amplitude"},
      {"measurement": "effect of incubation with Fe2+/ascorbate on G(τ→0) amplitude of SRB", "setting": "[1]; 25% D2-Lin-PC in H-Lin-PC, FIG. 1B", "result": "did not reduce the amplitude of G(τ→0) or reduced it to a very low extent"},
      {"measurement": "difference between extent of liposome leakage α with and without Fe2+/ascorbate", "setting": "[1]; 100% of the deuterated lipid, FIG. 2A", "result": "very low"}
    ]},
    {"smiles": "[2H]C([2H])(/C=C\\CC)/C=C\\C/C=C\\CCCCCCCC(=O)O[C@H](COC(=O)CCCCCCCCCCCCCCCCC)COP(=O)([O-])OCC[N+](C)(C)C", "note": "[D2-Lnn-PC, 1-stearoyl-2-(14,14-D2-linolenyl)-sn-glycero-3-phosphatidylcholine]", "values": [
      {"measurement": "percentage needed for protection of H-Lin-PC matrix, relative to D4-Lnn-PC", "setting": "FIG. 6", "result": "about twofold as high as that of D4-Lnn-PC"}
    ]},
    {"smiles": "[2H]C([2H])(/C=C\\CC)/C=C\\C([2H])([2H])/C=C\\CCCCCCCC(=O)O[C@H](COC(=O)CCCCCCCCCCCCCCCCC)COP(=O)([O-])OCC[N+](C)(C)C", "note": "[D4-Lnn-PC, 1-stearoyl-2-(11,11,14,14-D4-linolenyl)-sn-glycero-3-phosphatidylcholine]", "values": [
      {"measurement": "relative strength of protection of H-Lin-PC bulk: % in bilayer", "setting": "FIG. 6", "result": 17, "unit": "%"}
    ]},
    {"smiles": "[2H]C([2H])(/C=C\\CCCCC)/C=C\\C([2H])([2H])/C=C\\C([2H])([2H])/C=C\\CCCC(=O)O[C@H](COC(=O)CCCCCCCCCCCCCCCCC)COP(=O)([O-])OCC[N+](C)(C)C", "note": "[D6-Ara-PC, 1-stearoyl-2-(7,7,10,10,13,13-D6-arachidonoyl)-sn-glycero-3-phosphatidylcholine]", "values": [
      {"measurement": "relative strength of protection of H-Lin-PC bulk: % in bilayer", "setting": "FIG. 6", "result": 12, "unit": "%"}
    ]},
    {"smiles": "[2H]C([2H])(/C=C\\CC)/C=C\\C([2H])([2H])/C=C\\C([2H])([2H])/C=C\\C([2H])([2H])/C=C\\CCCC(=O)O[C@@H](COC(=O)CCCCCCCCCCCCCCCCC)COP(=O)([O-])OCC[N+](C)(C)C", "note": "[D8-EPA-PC, 1-stearoyl-2-(7,7,10,10,13,13,16,16-D8-eicosapentaenoyl)-sn-glycero-3-phosphatidylcholine]", "values": [
      {"measurement": "relative strength of protection of H-Lin-PC bulk: % in bilayer", "setting": "FIG. 6", "result": 10, "unit": "%"}
    ]},
    {"smiles": "[2H]C([2H])(/C=C\\CC)/C=C\\C([2H])([2H])/C=C\\C([2H])([2H])/C=C\\C([2H])([2H])/C=C\\C([2H])([2H])/C=C\\CCC(=O)O[C@H](COC(=O)CCCCCCCCCCCCCCCCC)COP(=O)([O-])OCC[N+](C)(C)C", "note": "[D10-DHA-PC, 1-stearoyl-2-(6,6,9,9,12,12,15,15,18,18-D10-docosahexaenoyl)-sn-glycero-3-phosphatidylcholine]", "values": [
      {"measurement": "protection, fold stronger than for D6-Ara", "setting": "diene conjugates assay, H-Lin-PC matrix", "result": 10, "unit": "fold"},
      {"measurement": "level suppressing lipid autooxidation, diene conjugates assay", "setting": "in the H-Lin-PC matrix, FIG. 6", "result": "≤ 1", "unit": "%"},
      {"measurement": "protection from oxidative stress compared to other deuterated lipids", "setting": "undeuterated H-Lin-PC matrix, FIG. 6", "result": "substantially enhanced protection from oxidative stress"}
    ]},
    {"smiles": "[2H]C([2H])(/C=C\\CC)/C=C\\C([2H])([2H])/C=C\\C([2H])([2H])/C=C\\C([2H])([2H])/C=C\\C([2H])([2H])/C=C\\CCC(=O)OCC", "note": "[D-DHA, 6,6,9,9,12,12,15,15,18,18-D10-docosahexaenoic acid ethyl ester]", "values": [
      {"measurement": "level reached in retinal tissues after oral dosing", "setting": "[2]", "result": "above 1%"}
    ]}
  ]
}
